In patent publication US10987336B2, “Method of preventing or treating side effect of tumor therapy” (priority 2018, dated 2021):
Where two headings read alike, the source gives them in different places.

Legend:
HUVEC cells [1] = test: CCK-8 cell survival: ameliorating proliferative toxicity of VEGF/VEGFR inhibitor (Examples 4-15); type: cell-based; details: agent 100 μM, 24-48 h
HaCaT cells = type: cell-based, human
HUVEC cells [2] = type: cell-based; details: Sorafenib (V1) 10 μM + agent 50 μM, 24 hours, CCK-8
Calmodulin (CaM) = test: Western Blot expression level in HaCaT cells (Example 147); type: cell-based, human; details: 24 hours, compared with the control group
Protocol: In the present application, compared effect of the nitric oxide releasing agent with calcium channel blocker on expression levels of calmodulin and calreticulin in HaCat cell The cultured HaCaT cells were digested, suspended, counted, and seeded into a 6-well plate with 200,000 cells per well. After the cells were attached, a nitric oxide releasing agent (or calcium channel blocker) solution was added to achieve a particular final concentration. A basic medium was added into the control group. At 24 hours after administration of the nitric oxide releasing agent (or calcium channel blocker), RIPA lysate [MUT], Beyotime Biotechnology) was used to extract protein. The change of expressions of calmodulin and calreticulin was determined by Western Blot. […] Image Lab was used to analyze the gray value results. GraphPad Prism 6.0 Software and t-test were used to carry out a statistic analysis of the results and plot a graph. Of those, represents P<0.001, ** represents P<0.01, * represents P<0.05, indicating a significant difference as compared with the corresponding control group; as statistically analyzed by using t-test.

[3] = HaCaT, Sorafenib (V1) 10 μM + agent 50 μM, 24 hours, CCK-8

| Structure (SMILES) | Cell Survival Rate (viable cells increased vs VEGF/VEGFR inhibitor group) (HUVEC cells [1]; Regorafenib 10 μM) | Cell Survival Rate (viable cells increased vs VEGF/VEGFR inhibitor group) (HUVEC cells [1]; Sorafenib 5 μM) | Cell Survival Rate (viable cells increased vs VEGF/VEGFR inhibitor group) (HUVEC cells [1]; Sunitinib 5 μM) | Cell Survival Rate (viable cells increased vs VEGF/VEGFR inhibitor group) (HUVEC cells [1]; Apatinib 10 μM) | Cell Survival Rate (viable cells increased vs VEGF/VEGFR inhibitor group) (HUVEC cells [1]; Axitinib 10 μM) | Cell Survival Rate (viable cells increased vs VEGF/VEGFR inhibitor group) (HUVEC cells [1]; Lenvatinib Mesylate 10 μM) | Cell Survival Rate (viable cells increased vs VEGF/VEGFR inhibitor group) (HUVEC cells [1]; Nintedanib Esylate 10 μM) | Cell Survival Rate (viable cells increased vs VEGF/VEGFR inhibitor group) (HUVEC cells [1]; Pazopanib Hydrochloride 10 μM) | Cell Survival Rate (viable cells increased vs VEGF/VEGFR inhibitor group) (HUVEC cells [1]; Thalidomide 10 μM) | also measured |
| --- | --- | --- | --- | --- | --- | --- | --- | --- | --- | --- |
| NCCN(CCN)/[N+]([O-])=N/O [3,3-Bis (aminoethyl)-1-hydroxy-2-oxo-1-triazene] | Increased by 15-20% | Increased by 35-45% | Increased by 20-30% |  |  |  |  |  |  |  |
| N=c1c[n+](N2CCOCC2)[n-]o1 [3-morpholinosydnonimine] | Increased by 15-20% | Increased by 30-40% | Increased by 10-20% |  |  |  |  |  |  |  |
| CC(C)CCON=O [Isoamyl Nitrite] | Increased by 15-20% | Increased by 30-40% | Increased by 20-25% | Increased by 40-50% | Increased by 20-30% | Increased by 30-50% | Increased by 30-50% | Increased by 20-30% | Increased by 20-30% |  |
| O=[N+]([O-])O[C@H]1CO[C@H]2[C@@H]1OC[C@H]2O[N+](=O)[O-] [Isosorbide Dinitrate] |  |  |  |  |  |  |  |  |  | Cell Survival Rate (percentage of viable cells increased as compared to the VEGF/VEGFR inhibitor group) (HaCaT cells; [3]): by 20-50% |
| O=[N+]([O-])O[C@@H]1CO[C@H]2[C@@H]1OC[C@@H]2O [Isosorbide Mononitrate] | Increased by 20-30% | Increased by 30-35% | Increased by 20-25% |  |  |  |  |  |  | Cell Survival Rate (percentage of viable cells increased as compared to the VEGF/VEGFR inhibitor group) (HUVEC cells [2]): by 20-40%; Cell Survival Rate (percentage of viable cells increased as compared to the VEGF/VEGFR inhibitor group) (HaCaT cells; [3]): by 20-50% |
| CCOC(=O)[N-]c1cn(N2CCOCC2)n[o+]1 [Molsidomine] | Increased by 20-30% | Increased by 30-40% | Increased by 20-30% | Increased by 40-50% | Increased by 20-30% | Increased by 30-50% | Increased by 30-50% | Increased by 20-30% | Increased by 20-30% |  |
| O=C(NCCO[N+](=O)[O-])c1cccnc1 [Nicorandil] | Increased by 20-30% | Increased by 50-60% | Increased by 10-20% | Increased by 40-50% | Increased by 20-30% | Increased by 30-50% | Increased by 30-50% | Increased by 20-30% | Increased by 20-30% |  |
| O=[N+]([O-])OCC(CO[N+](=O)[O-])O[N+](=O)[O-] [Nitroglycerin] |  |  |  |  |  |  |  |  |  | Cell Survival Rate (percentage of viable cells increased as compared to the VEGF/VEGFR inhibitor group) (HUVEC cells [2]): by 25-50%; Cell Survival Rate (percentage of viable cells increased as compared to the VEGF/VEGFR inhibitor group) (HaCaT cells): by 20-40% |
| CCCc1nn(C)c2c(=O)[nH]c(-c3cc(S(=O)(=O)N4CCN(C)CC4)ccc3OCC)nc12 [Sildenafil] | No significant change | No significant change | No significant change |  |  |  |  |  |  |  |
| COc1ccc([C@@H]2Sc3ccccc3N(CCN(C)C)C(=O)[C@@H]2OC(C)=O)cc1 [diltiazem] |  |  |  |  |  |  |  |  |  | expression level of calmodulin (CaM), gray value analysis (Calmodulin (CaM)): decreased significantly |
